Reference: PMC11435135, “Diagnosis of Prostate Cancer with a Neurotensin–Bombesin Radioligand Combination—First Preclinical Results” (Pharmaceutics, 2024)

Tests used:
[1] = system: PC-3 xenografts; set-up: species or system mice; conditions: mouse, in vivo
Method: The biodistribution of [^99mTc]Tc-DT11 was studied in male severe combined immunodeficiency (SCID) mice (11 mice 6-weeks of age on arrival date, 18 ± 4 g, NCSR “Demokritos” Animal House, Athens, Greece) bearing PC-3 xenografts in their flanks. Tumor induction was achieved by subcutaneous injection of a PC-3 cell suspension (12 × 10^6 cells in 150 µL PBS) in their flanks. The animals were kept under aseptic conditions and, 3 weeks later, developed palpable masses at the inoculation sites (150 ± 50 mg); biodistribution was then conducted. On the day of the experiment, animals were divided into three groups: controls (n = 4), Entresto® (n = 4) and block (n = 3). All mice were injected in the tail vein with a bolus of [^99mTc]Tc-DT11 (100 µL, 185 kBq, 5 pmol total peptide in vehicle). […] Blood was collected from the heart, and tumors, organs and tissue samples of interest were excised and weighted, and their radioactivity content was measured together with the proper standards of the injected activity in the gamma counter. The percent of injected activity per gram (%IA/g) was calculated, and the results were provided as mean %IA/g values ± sd for each group. […]

[2] = system: NTS1R; conditions: cited from earlier work
Text: (§1) We decided to investigate the potential advantages–shortcomings of the “radioligand cocktail” approach in human prostate cancer, prompted by the reported co-expression of NTS1R and GRPR in this frequently occurring cancer type. For such a purpose, we opted for the PC-3 cell line to conduct our cell uptake studies as well as to induce subcutaneous xenografts in mice, as it co-expresses the two targets of interest. Based on our previous work on NTS1R- and GRPR-directed radioligands, we selected a cocktail consisting of [^99mTc]Tc-DT11 (NTS1R-specific) [[47] ...

[3] = system: PC-3 cells; experiment: Uptake/internalization of [99mTc]Tc-DT11 in PC-3 cells; format: cell-based, human; conditions: radioligand alone, 1 h at 37 °C
Method: The day preceding the experiment, PC-3 cells were transferred in 6-well plates (1 × 10^6 cells in 3 mL culture medium per well), and the plates were positioned in the incubator. On the day of the experiment, the plates were placed on ice and the supernatant was aspirated and discarded. The cells were rinsed with 2 × 2 mL ice-cold internalization medium (IM, RPMI-1640 with 1% FBS) and the plates were placed on the bench. Warm IM (1.2 mL at 37 °C) was added to the wells, followed by either warm IM (150 µL—3 upper wells, total series) or excess NT in IM (150 µL to a final concentration of 1 µM—3 lower wells, non-specific series). In a last step, [^99mTc]Tc-DT11 in phosphate-buffered saline with 0.5% bovine serum albumin (PBS-BSA) was added to all plates (250 fmol peptide, ≈100,000 cpm). Cells were incubated for 1 h at 37 °C in an Incubator-Orbital Shaker unit (MPM Instr. SrI, Bernareggio, Milan, Italy). Incubation was interrupted by placing the plates on ice and collecting the supernatants in separate plastic tubes. The cells were rinsed with ice-cold PBS-BSA (1 mL) and the liquid was collected and combined with the respective supernatant tubes. The plates were placed on the bench and incubated 2 × 5 min with acid buffer (2 × 600 µL, 50 mM Gly in 0.1 M NaCl, pH 2.8). Supernatants were again collected and combined in individual tubes (membrane-bound fractions). Cells were rinsed with ice-cold PBS-BSA (1 mL), which was aspirated and discarded. Finally, the cells were treated with 2 × 600 µL 1 M NaOH, detached, collected and combined in separate tubes (internalized fractions). The radioactivity of all tubes was measured in the gamma counter. The percentage of specific membrane-bound and internalized fractions (their sum corresponding to specific cell-uptake) vs. total radioactivity added per well were calculated by subtracting non-specific values from totals. Results were expressed as average values ± standard deviation (sd) from 3 independent experiments performed in triplicate.

[4] = system: GRPR; conditions: cited from earlier work
Text: as §1

[5] = NTS1R-specific, % of added activity, mean ± sd, 3 experiments in triplicate

| Substance | tumor-to-kidney ratio [1] | affinity to the respective receptor [2] | internalized fraction as share of cell-associated activity [3] | membrane-bound fraction as share of cell-associated activity [3] | internalized fraction [3, 5] [%] | membrane-bound fraction [3, 5] [%] | affinity to the respective receptor [4] |
| --- | --- | --- | --- | --- | --- | --- | --- |
| N4-Lys(MPBA-PEG4)-Arg-Arg-Pro-Tyr-Ile-Leu-OH [[^99mTc]Tc-DT11, Tc-99m labeled DT11, NTS1R-specific neurotensin-based radioligand] | ≈ 1.5 | sub-nanomolar | ≈ 87% | ≈ 13% | 1.22 ± 0.26 | 0.18 ± 0.12 |  |
| N4-PEG2-DPhe-Gln-Trp-Ala-Val-Gly-His-Leu-NHEt [[^99mTc]Tc-DB7, Tc-99m labeled DB7, GRPR-specific bombesin-based radioligand (GRPR antagonist)] |  |  |  |  |  |  | sub-nanomolar |
